From PubChem BioAssay AID1963965 (Molecular Pharmacology Branch, DTP, NCI, 2024)
Where “and” joins values, the source holds several entries; their conditions need not be identical. Equal values may be shown once. Values belong to the compound of their own block, whether it stands above or below them.

System: 996289-038-R-J1-PDC spheroid viability
Assay: Anticancer human tumor 996289-038-R-J1-PDC patient-derived colon adenocarcinoma cell line growth inhibition [PI3K]
Conditions: spheroids with HUVEC and MSC; for viability, T/C: stronger effect = lower value
How it was run: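 Combination activity was assessed by viability in multicellular tumor spheroids carrying HUVEC and MSC components. Agents were tested with PI3K inhibitors from a Cmax-based top dose (or 10 microM) downward in half-log increments.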

[1] = curve of first compound, second compound 0.0316 µM
[2] = curve of first compound, second compound 0.1 µM
[3] = curve of first compound, second compound 0.316 µM
[4] = curve of first compound, second compound 1 µM
[5] = curve of first compound, second compound 3.16 µM
[6] = curve of first compound, second compound 10 µM
[7] = second compound 0.0316 µM, first compound 0.0316 µM
[8] = second compound 0.0316 µM, first compound 0.1 µM
[9] = second compound 0.0316 µM, first compound 0.316 µM
[10] = second compound 0.0316 µM, first compound 1 µM
[11] = second compound 0.0316 µM, first compound 3.16 µM
[12] = second compound 0.0316 µM, first compound 10 µM
[13] = second compound 0.1 µM, first compound 0.0316 µM
[14] = second compound 0.1 µM, first compound 0.1 µM
[15] = second compound 0.1 µM, first compound 0.316 µM
[16] = second compound 0.1 µM, first compound 1 µM
[17] = second compound 0.1 µM, first compound 3.16 µM
[18] = second compound 0.1 µM, first compound 10 µM
[19] = second compound 0.316 µM, first compound 0.0316 µM
[20] = second compound 0.316 µM, first compound 0.1 µM
[21] = second compound 0.316 µM, first compound 0.316 µM
[22] = second compound 0.316 µM, first compound 1 µM
[23] = second compound 0.316 µM, first compound 3.16 µM
[24] = second compound 0.316 µM, first compound 10 µM
[25] = second compound 1 µM, first compound 0.0316 µM
[26] = second compound 1 µM, first compound 0.1 µM
[27] = second compound 1 µM, first compound 0.316 µM
[28] = second compound 1 µM, first compound 1 µM
[29] = second compound 1 µM, first compound 3.16 µM
[30] = second compound 1 µM, first compound 10 µM
[31] = second compound 3.16 µM, first compound 0.0316 µM
[32] = second compound 3.16 µM, first compound 0.1 µM
[33] = second compound 3.16 µM, first compound 0.316 µM
[34] = second compound 3.16 µM, first compound 1 µM
[35] = second compound 3.16 µM, first compound 3.16 µM
[36] = second compound 3.16 µM, first compound 10 µM
[37] = second compound 10 µM, first compound 0.0316 µM
[38] = second compound 10 µM, first compound 0.1 µM
[39] = second compound 10 µM, first compound 0.316 µM
[40] = second compound 10 µM, first compound 1 µM
[41] = second compound 10 µM, first compound 3.16 µM
[42] = second compound 10 µM, first compound 10 µM
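Note: spheroids exposed to compounds for seven days before viability read.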
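Throughout, for viability, T/C: luminescence used as a proxy for viable cell amount; percent viability relative to DMSO vehicle control as 100%.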

IC50 [1]: > 10000 nM
IC50 [2]: > 10000 nM
IC50 [3]: > 10000 nM
IC50 [4]: > 10000 nM
IC50 [5]: 5060 nM
IC50 [6]: < 31.6 nM
SMILES: CC(C)NCC(C(=O)N1CCN(c2ncnc3c2C(C)CC3O)CC1)c1ccc(Cl)cc1 (stereo not drawn) + Cc1nc(NC(=O)N2CCCC2C(N)=O)sc1-c1ccnc(C(C)(C)C(F)(F)F)c1
viability, T/C [7]: 82.8%
viability, T/C [8]: 92.3%
viability, T/C [9]: 85.9%
viability, T/C [10]: 97.7%
viability, T/C [11]: 85.2%
viability, T/C [12]: 66.7%
viability, T/C [13]: 82.4%
viability, T/C [14]: 81%
viability, T/C [15]: 97.9%
viability, T/C [16]: 82.1%
viability, T/C [17]: 82.1%
viability, T/C [18]: 66.2%
viability, T/C [19]: 76.5%
viability, T/C [20]: 88.8%
viability, T/C [21]: 81.7%
viability, T/C [22]: 69.2%
viability, T/C [23]: 78.4%
viability, T/C [24]: 54.5%
viability, T/C [25]: 68.7%
viability, T/C [26]: 60.7%
viability, T/C [27]: 67.8%
viability, T/C [28]: 69.5%
viability, T/C [29]: 59.5%
viability, T/C [30]: 51%
viability, T/C [31]: 61%
viability, T/C [32]: 60%
viability, T/C [33]: 60.7%
viability, T/C [34]: 59.1%
viability, T/C [35]: 57%
viability, T/C [36]: 40.1%
viability, T/C [37]: 45.7%
viability, T/C [38]: 35.9%
viability, T/C [39]: 43.5%
viability, T/C [40]: 45.9%
viability, T/C [41]: 34.3%
viability, T/C [42]: 28.2%

IC50 (curve of compound): > 10000 nM
SMILES: CC(Cn1ccc(-c2ccc(C#N)c(Cl)c2)n1)NC(=O)c1cc(C(C)O)[nH]n1 (stereo not drawn)
viability, T/C (compound 0.0316 µM): 98.8% [middle of 4 runs]
viability, T/C (compound 0.1 µM): 104% (2×) and 86.4% and 92.5%
viability, T/C (compound 0.316 µM): 86.8% and 108% (2×) and 113%
viability, T/C (compound 1 µM): 108% [middle of 4 runs]
viability, T/C (compound 3.16 µM): 97.8% [middle of 4 runs]
viability, T/C (compound 10 µM): 101% [middle of 4 runs]

IC50 [1]: > 10000 nM
IC50 [2]: > 10000 nM
IC50 [3]: > 10000 nM
IC50 [4]: > 10000 nM
IC50 [5]: > 10000 nM
IC50 [6]: < 31.6 nM
SMILES: CNC(=O)c1ccc(N2C(=S)N(c3ccc(C#N)c(C(F)(F)F)c3)C(=O)C2(C)C)cc1F + Cc1nc(NC(=O)N2CCCC2C(N)=O)sc1-c1ccnc(C(C)(C)C(F)(F)F)c1
viability, T/C [7]: 92%
viability, T/C [8]: 95.8%
viability, T/C [9]: 92.2%
viability, T/C [10]: 92.3%
viability, T/C [11]: 93.8%
viability, T/C [12]: 90.4%
viability, T/C [13]: 92.9%
viability, T/C [14]: 82.7%
viability, T/C [15]: 97.2%
viability, T/C [16]: 83.3%
viability, T/C [17]: 95.2%
viability, T/C [18]: 90.3%
viability, T/C [19]: 90.9%
viability, T/C [20]: 81%
viability, T/C [21]: 88.4%
viability, T/C [22]: 84.8%
viability, T/C [23]: 73.9%
viability, T/C [24]: 96.5%
viability, T/C [25]: 75.6%
viability, T/C [26]: 76.9%
viability, T/C [27]: 69.7%
viability, T/C [28]: 79.9%
viability, T/C [29]: 80.7%
viability, T/C [30]: 70.8%
viability, T/C [31]: 65.5%
viability, T/C [32]: 64.7%
viability, T/C [33]: 58.9%
viability, T/C [34]: 52.4%
viability, T/C [35]: 61.5%
viability, T/C [36]: 51.3%
viability, T/C [37]: 39.9%
viability, T/C [38]: 46.9%
viability, T/C [39]: 49.6%
viability, T/C [40]: 38.9%
viability, T/C [41]: 48.3%
viability, T/C [42]: 36.8%

IC50 [1]: 80.1 nM
IC50 [2]: 62 nM
IC50 [3]: 64.9 nM
IC50 [4]: 58 nM
IC50 [5]: 71.7 nM
IC50 [6]: 62.9 nM
SMILES: CC(C)n1nc(-c2ccc3oc(N)nc3c2)c2c(N)ncnc21 + CC(Nc1ncnc2nc[nH]c12)c1cc2cccc(Cl)c2c(=O)n1-c1ccccc1
viability, T/C (second compound 0.0316 µM, first compound 0.000316 µM): 107%
viability, T/C (second compound 0.0316 µM, first compound 0.001 µM): 88.6%
viability, T/C (second compound 0.0316 µM, first compound 0.00316 µM): 97.6%
viability, T/C (second compound 0.0316 µM, first compound 0.01 µM): 86.7%
viability, T/C [7]: 82.7%
viability, T/C [8]: 42.3%
viability, T/C (second compound 0.1 µM, first compound 0.000316 µM): 124%
viability, T/C (second compound 0.1 µM, first compound 0.001 µM): 96.5%
viability, T/C (second compound 0.1 µM, first compound 0.00316 µM): 96.1%
viability, T/C (second compound 0.1 µM, first compound 0.01 µM): 95.8%
viability, T/C [13]: 70.8%
viability, T/C [14]: 34.5%
viability, T/C (second compound 0.316 µM, first compound 0.000316 µM): 105%
viability, T/C (second compound 0.316 µM, first compound 0.001 µM): 87.4%
viability, T/C (second compound 0.316 µM, first compound 0.00316 µM): 84.6%
viability, T/C (second compound 0.316 µM, first compound 0.01 µM): 87.3%
viability, T/C [19]: 73.9%
viability, T/C [20]: 36.2%
viability, T/C (second compound 1 µM, first compound 0.000316 µM): 98.4%
viability, T/C (second compound 1 µM, first compound 0.001 µM): 97.9%
viability, T/C (second compound 1 µM, first compound 0.00316 µM): 85.9%
viability, T/C (second compound 1 µM, first compound 0.01 µM): 84.6%
viability, T/C [25]: 65.7%
viability, T/C [26]: 35.9%
viability, T/C (second compound 3.16 µM, first compound 0.000316 µM): 87.5%
viability, T/C (second compound 3.16 µM, first compound 0.001 µM): 87.5%
viability, T/C (second compound 3.16 µM, first compound 0.00316 µM): 86.2%
viability, T/C (second compound 3.16 µM, first compound 0.01 µM): 89.5%
viability, T/C [31]: 76.8%
viability, T/C [32]: 38.9%
viability, T/C (second compound 10 µM, first compound 0.000316 µM): 85%
viability, T/C (second compound 10 µM, first compound 0.001 µM): 82%
viability, T/C (second compound 10 µM, first compound 0.00316 µM): 82.9%
viability, T/C (second compound 10 µM, first compound 0.01 µM): 79%
viability, T/C [37]: 68.8%
viability, T/C [38]: 37.2%
